# In patent US20210177889A1, “GASEOUS PHARMACEUTICAL COMPOSITION FOR HYPERTENSION THERAPY” (KEIO UNIVERSITY, priority 2019, published 2021):
# How the values were obtained:
# autonomic nerve function = test: Autonomic nerve function by frequency analysis in spontaneous hypertension rats; assay type: in vivo, rat (SHR/Izumo); settings: SHR
# Method: Heart rate variability was analyzed using telemetry system software (Ponemah Ver. 6.3, Data Science International). Frequency domain analysis (sampling rate of 500 Hz; very low frequency (VLF) (0.05-0.25 Hz); low frequency (LF) (0.25-1.0 Hz); and high frequency (HF) (1.0-3.0 Hz)) was carried out using the arterial pressure waveform data of the first one minute of every five minutes (about 300 to 400 beats). In heart rate variability analysis, data recorded in the first 15 minutes was excluded, and effective data in the first one minute out of a block of every 5 minutes was used. LF and HF each reflected the sympathetic nerve component and the parasympathetic nerve component (Akselrod, S. et al. Power spectrum analysis of heart rate fluctuation: a quantitative probe of beat-to-beat cardiovascular control. Science 213, 220-222 (1981); Pagani, M. et al. Power spectral analysis of heart rate and arterial pressure variabilities as a marker of sympatho-vagal interaction in man and conscious dog. Circ. Res. 59, 178-193 (1986); and Montano, N. et al. Power spectrum analysis of heart rate variability to assess the changes in sympathovagal balance during graded orthostatic tilt. Circulation 90, 1826-1831 (1994)). LF/HF ratio and HF/(LF+HF) were each handled as indicators of sympathetic nerve activity and parasympathetic nerve activity (Heart rate variability: standards of measurement, physiological interpretation and clinical use. Task Force of the European Society of Cardiology and the North American Society of Pacing and Electrophysiology. Circulation 93, 1043-1065 (1996); and Pagani, M. et al. Relationship between spectral components of cardiovascular variabilities and direct measures of muscle sympathetic nerve activity in humans. Circulation 95, 1441-1448 (1997)).
# H2 gas (1.3% H2+21% O2+77.7 N2) and control gas (21% O2+79% N2) were filled into gas cylinders in advance at a factory. The H2 group and the control group were allowed to inhale the H2 gas and the control gas that were mixed in advance. […]
# [1] = test system: hypertension attributed to 5/6 nephrectomy; test: Continuous telemetry blood pressure monitoring after 5/6 nephrectomy with daily H2 inhalation; assay type: in vivo, Lewis rat
# Excerpt: In order to monitor continuous blood pressure fluctuation, telemetry transmitters were implanted into rats. Specifically, rats were anesthetized with isoflurane, and the left groin was disinfected with 1% chlorhexidine. An incision of about 1.5 cm was made in the left groin, the left femoral artery was exposed, and a telemetry transmitter (HD-S10, Physiotel HD Telemetry, Data Science International) catheter was inserted into the left femoral artery. The tip of the transmitter catheter was placed in the abdominal aorta caudally from the branch of the renal artery. The transmitter body was inserted into a subcutaneous pocket made in the left lower back, and the skin was sutured. All surgical intervention was performed under sterile conditions. In order to elicit renal hypertension, 5/6 nephrectomy was carried out with slight modification to previously described methods (Nephrology (Carlton) 19, 552-561; 10.1111/nep.12279 (2014); J. Am. Soc. Nephrol. 4, 2023-2031 (1994); and Kidney Int. 40, 29-34; 10.1038/ki.1991.175 (1991).). Briefly, rats were anesthetized by isoflurane inhalation (induction at 4% and maintenance at 1.5%), and upper midline laparotomy of about 4 cm was carried out. Surgical operation was performed under a microscope, the left renal artery branch was identified, and selectively ligated with 7-0 silk at a position as close as possible to the left kidney so that macroscopic infarction is caused in about ⅔ of the left renal cortex. In the first pilot research (FIGS. 1a and 2), a high-temperature cautery pen (AA11, Bovie, Tenn., U.S.A.) was used to add the resection of the infarcted portion of the kidney. Subsequently, the right renal artery, the renal vein, and the urinary duct was ligated with 4-0 silk, and the right kidney were resected. The abdominal wall and the skin were closed with a 4-0 nylon thread. The anesthetic time was uniformly 30 minutes in all rats. H2 gas (1.3% H2+21% O2+77.7 N2) and control gas (21% O2+79% N2) were filled into gas cylinders in advance at a factory. The H2 group and the control group were allowed to inhale the H2 gas and the control gas that were mixed in advance. All animals were allowed to inhale the assigned gas at 10 L/minute for 1 hour in an established anesthesia box, and inhaled for an additional three minutes to purge the box (i.e. a total of 63 minutes). In the nephrectomy model and SHR, gas inhalation was repeated every day for 4 weeks and 2 weeks, respectively. In order to investigate the time course necessary for H2 gas to exert therapeutic effect, rats implanted with telemetry (8 weeks-old; 3 for each group) were subjected to 5/6 nephrectomy, and the blood pressure fluctuation was continuously monitored (FIG. 1b). In the first gas inhalation immediately after 5/6 nephrectomy, the blood pressure of the H2 gas group was reduced compared to the control group (117.4±1.8 mmHg vs. 125.6±4.7 mmHg, P=0.04). […] Before the start of inhalation on Day 2, there was no difference in blood pressure between the two groups. […] To examine the anti-hypertensive effect of H2 in more detail, chronic and continuous monitoring of blood pressure using a non-invasive method with a wireless implantable telemetry system (FIG. 5a) was conducted. Gas inhalation was started on the day of 5/6 nephrectomy and continued for 4 weeks. Again, there was no difference in the time course of change in renal function between the two groups.
smiles,measurement,setting,value
"[2H][2H] [H2 gas, Molecular hydrogen (H2)]",paraSNA (HF/LF+HF) ratio,autonomic nerve function; Week two compared to Week 1,increases
same,influence on the autonomic nerve function after the end of inhalation,autonomic nerve function; after the first week after the end of inhalation,disappeared
same,SNA (LF/HF),autonomic nerve function; during inhalation of H2,decreases
same,time course of change in renal function between the two groups,"[1]; 5/6 nephrectomy, 4 weeks of gas inhalation",no difference
same,blood pressure before inhalation compared to the control group,"[1]; after Week 1 of daily inhalation, telemetry",began to decrease
same,difference in blood pressure between H2 and control groups when inhalation was stopped,"[1]; after the first gas inhalation, telemetry",immediately disappeared
same,blood pressure in the first gas inhalation,"[1]; first inhalation immediately after 5/6 nephrectomy, telemetry, N=3, P=0.04 vs control (125.6±4.7)",117.4±1.8 mmHg
same,decrease in blood pressure with longer period of gas inhalation vs control 5/6 nephrectomy,"[1]; inhalation from the day of 5/6 nephrectomy for 4 weeks, telemetry, P<0.05",greater decrease
same,difference in blood pressure between the two groups before the start of inhalation on Day 2,"[1]; telemetry, before inhalation, Day 2",no difference
